Source: the supplement of paper PMC10307832

Key:
Experiment in all cases: relative viability (nuclei count vs DMSO), 5 days (fraction); higher = more cells survive
[1] = compound: C1CNCCC1C2=CC(=NN2)C3=CC=NC=C3 + NC(=O)Nc1cc(-c2cccc(F)c2)sc1C(=O)N[C@H]1CCCNC1 [AZD7762] (partner 0.2 µM)
How it was run: (§1)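 Cells from lung cancer lines were seeded into 1536-well plates and, one day later, dosed by pin tool. Treatments were either a single drug or a fixed dose of an anchor drug with five library-drug doses (not always all listed) in √10 steps. After 5 days, nuclei were stained in a one-step fixation (final 0.05% Triton X-100, 1% formaldehyde, 1 ug/ml Hoechst) and counted on 4× images, and relative viability is the treated-to-vehicle nuclei ratio, as the median of duplicate plates.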

[2] = compound: C1CNCCC1C2=CC(=NN2)C3=CC=NC=C3 + Nc1ncn([C@H]2C[C@H](O)[C@@H](CO)O2)c(=O)n1 [Decitabine] (partner 2 µM)
How it was run: as §1

[3] = compound: C1CNCCC1C2=CC(=NN2)C3=CC=NC=C3 + Nc1nc2[nH]cc(CCc3ccc(C(=O)N[C@@H](CCC(=O)O)C(=O)O)cc3)c2c(=O)[nH]1 [Pemetrexed] (partner 0.2 µM)
How it was run: as §1

Tanzisertib + Trametinib = compound: O[C@H]1CC[C@H](Nc2ncc3nc(Nc4c(F)cc(F)cc4F)n([C@H]4CCOC4)c3n2)CC1 [Tanzisertib] + CC(=O)Nc1cccc(-n2c(=O)n(C3CC3)c(=O)c3c(Nc4ccc(I)cc4F)n(C)c(=O)c(C)c32)c1 [Trametinib] (partner 0.02 µM)
How it was run: as §1

Row | Cell Line | relative viability ([1]; first compound 0.08 µM) | relative viability ([1]; first compound 0.8 µM) | relative viability ([1]; first compound 2.53 µM) | relative viability ([1]; first compound 8 µM) | relative viability ([2]; first compound 0.08 µM) | relative viability ([2]; first compound 0.8 µM) | relative viability ([2]; first compound 2.53 µM) | relative viability ([2]; first compound 8 µM) | relative viability ([3]; first compound 0.08 µM) | relative viability ([3]; first compound 0.8 µM) | relative viability ([3]; first compound 2.53 µM) | relative viability ([3]; first compound 8 µM) | relative viability (Tanzisertib + Trametinib; first compound 0.08 µM) | relative viability (Tanzisertib + Trametinib; first compound 0.253 µM) | relative viability (Tanzisertib + Trametinib; first compound 0.8 µM) | relative viability (Tanzisertib + Trametinib; first compound 2.53 µM) | relative viability (Tanzisertib + Trametinib; first compound 8 µM)
1 | NCI-H596 | 1.1 | 1.31 | 1.12 | 1.39 | 1.03 | 1.25 | 0.922 | 1.21 | 0.483 | 0.476 | 0.525 | 0.478 | 0.789 | 0.796 | 0.89 | 0.73 | 0.776
2 | NCI-H647 | 0.409 | 0.43 | 0.383 | 0.431 | 0.296 | 0.378 | 0.338 | 0.392 | 0.176 | 0.146 | 0.174 | 0.189 | 0.702 | 0.47 | 0.524 | 0.528 | 0.418
3 | NCI-H650 | 0.853 | 1.07 | 1.09 | 0.949 | 0.284 | 0.322 | 0.341 | 0.303 | 0.956 | 0.967 | 0.951 | 1.02 | 0.975 | 0.946 | 1.06 | 0.983 | 0.874
4 | NCI-H838 | 0.928 | 0.888 | 0.989 | 0.934 | 0.431 | 0.441 | 0.46 | 0.451 | 0.24 | 0.259 | 0.248 | 0.284 | 0.705 | 0.566 | 0.506 | 0.529 | 0.49
5 | NCI-H1355 | 0.682 | 0.801 | 0.822 | 0.796 | 0.374 | 0.36 | 0.395 | 0.354 | 1.09 | 1.08 | 1.07 | 1.02 | 0.455 | 0.433 | 0.47 | 0.417 | 0.464
6 | NCI-H1395 | 0.389 | 0.437 | 0.405 | 0.398 | 0.705 | 0.714 | 0.751 | 0.755 | 0.782 | 0.803 | 1.03 | 0.861 | 1.03 | 0.932 | 0.989 | 0.991 | 1.05
7 | NCI-H1437 | 1.09 | 1.09 | 1.17 | 1.09 | 0.574 | 0.573 | 0.624 | 0.602 | 0.334 | 0.312 | 0.363 | 0.303 | 0.588 | 0.481 | 0.512 | 0.558 | 0.43
8 | NCI-H1648 | 0.632 | 0.716 | – | 0.78 | 0.453 | 0.572 | – | 0.573 | 0.671 | 0.57 | – | 0.828 | 0.492 | 0.459 | 0.51 | 0.5 | 0.482
9 | NCI-H1651 | 0.463 | 0.427 | 0.488 | 0.543 | 0.586 | 0.566 | 0.686 | 0.501 | 0.592 | 0.597 | 0.608 | 0.575 | 0.851 | 0.83 | 0.775 | 0.832 | 0.85
10 | NCI-H1666 | 0.829 | 0.847 | 1.04 | 1 | 0.697 | 0.747 | 0.762 | 0.728 | 0.788 | 0.804 | 0.873 | 0.909 | 0.842 | 0.839 | 0.968 | 0.862 | 0.908
11 | NCI-H1734 | 0.445 | 0.59 | 0.652 | 0.584 | 0.452 | 0.524 | 0.488 | 0.497 | 0.407 | 0.431 | 0.426 | 0.433 | 0.652 | 0.669 | 0.709 | 0.681 | 0.721
12 | NCI-H1755 | 0.473 | 0.448 | 0.419 | 0.561 | 0.712 | 0.717 | 0.692 | 0.641 | 0.475 | 0.439 | 0.433 | 0.329 | 0.791 | 0.831 | 0.779 | 0.697 | 0.719
13 | NCI-H1792 | 0.616 | 0.675 | 0.632 | 0.717 | 0.553 | 0.398 | 0.551 | 0.514 | 0.909 | 0.73 | 0.831 | 0.849 | 0.501 | 0.455 | 0.35 | 0.413 | 0.244
14 | NCI-H1793 | 0.369 | – | 0.615 | 0.61 | 0.338 | – | 0.489 | 0.626 | 0.805 | – | 0.929 | 0.974 | 0.65 | 0.419 | 0.475 | 0.398 | 0.542
15 | NCI-H1915 | 0.704 | 0.745 | 0.722 | 0.704 | 0.267 | 0.249 | 0.26 | 0.263 | 0.579 | 0.502 | 0.525 | 0.471 | 0.31 | 0.306 | 0.296 | 0.268 | 0.258
16 | NCI-H1944 | 0.442 | 0.467 | 0.477 | 0.503 | 0.426 | 0.431 | 0.414 | 0.415 | 0.564 | 0.595 | 0.67 | 0.557 | 0.455 | 0.422 | 0.435 | 0.343 | 0.403
17 | NCI-H1975 | 0.758 | 0.599 | 0.742 | 0.679 | 0.369 | 0.355 | 0.399 | 0.363 | 0.313 | 0.307 | 0.303 | 0.29 | 0.396 | 0.422 | 0.345 | 0.349 | 0.341
18 | NCI-H1993 | 0.874 | 0.631 | 0.858 | 0.681 | 0.573 | 0.576 | 0.473 | 0.7 | 0.607 | 0.342 | 0.535 | 0.689 | 0.638 | 0.428 | 0.55 | 0.499 | 0.522
19 | NCI-H2085 | 0.999 | – | 1.03 | 1 | 0.526 | – | 0.578 | 0.531 | 1.1 | – | 0.96 | 0.969 | – | 0.604 | 0.436 | 0.556 | 0.491
20 | NCI-H2087 | 1.18 | 1.46 | 1.33 | 1.22 | 0.339 | 0.279 | 0.267 | 0.292 | 0.722 | 0.679 | 0.635 | 0.666 | 0.256 | 0.171 | 0.21 | 0.181 | 0.182
21 | NCI-H2126 | 1.01 | 1.04 | 1.01 | 1.01 | 0.613 | 0.654 | 0.667 | 0.578 | 0.643 | 0.625 | 0.694 | 0.728 | 0.56 | 0.597 | 0.611 | 0.546 | 0.59
22 | NCI-H2170 | 0.746 | 0.909 | 0.949 | 0.897 | 0.442 | 0.446 | 0.487 | 0.529 | 0.269 | 0.283 | 0.288 | 0.266 | 0.989 | 0.965 | 0.927 | 0.926 | 0.874
23 | NCI-H2342 | 0.572 | 0.351 | 0.57 | 0.591 | 0.634 | 0.709 | 0.685 | 0.819 | 0.725 | 0.711 | 0.759 | 0.787 | 0.791 | 0.733 | 0.804 | 0.863 | 0.938
24 | NCI-H2347 | 0.763 | 0.494 | 0.745 | 0.76 | 0.63 | 0.621 | 0.658 | 0.567 | 0.441 | 0.409 | 0.422 | 0.422 | 0.256 | 0.255 | 0.261 | 0.259 | 0.29
25 | NCI-H2405 | 0.858 | 0.717 | 0.709 | 0.585 | 0.705 | 0.735 | 0.793 | 0.753 | 1.05 | 1.1 | 1.11 | 1 | 0.766 | 0.559 | 0.565 | 0.52 | 0.44
26 | NCI-H3122 | 0.948 | 1.06 | 0.966 | 1.01 | 0.421 | 0.453 | 0.417 | 0.521 | 0.193 | 0.212 | 0.197 | 0.202 | 0.262 | 0.201 | 0.273 | 0.245 | 0.237
27 | PC-3 [JPC-3] | 0.879 | 0.817 | 0.689 | 0.936 | 0.881 | 0.77 | 0.963 | 0.895 | 0.966 | 1.22 | 1.15 | 0.998 | 0.715 | 0.759 | 0.763 | 0.774 | 0.612
28 | PC-14 | 0.363 | 0.383 | 0.237 | 0.348 | 0.22 | 0.19 | 0.268 | 0.265 | 0.107 | 0.134 | 0.138 | 0.131 | 0.886 | 0.673 | 0.805 | 0.666 | 0.295
29 | RERF-LC-KJ | 0.905 | 1.04 | 1.11 | 1.01 | 0.692 | 0.689 | 0.766 | 0.668 | 0.464 | 0.493 | 0.516 | 0.463 | 0.863 | 0.919 | 0.959 | 0.782 | 0.834
30 | SW 900 | 0.687 | – | 0.718 | 0.738 | 0.418 | – | 0.424 | 0.475 | 0.497 | – | 0.5 | 0.454 | – | 0.868 | 0.857 | 0.552 | 0.737
